This note sets out measurements from PubChem BioAssay AID340 (DTP/NCI, 2004).

This assay has as its system CD2F1 mice, ip reticulum cell sarcoma, survival T/C. Briefly: NCI In Vivo Anticancer Drug Screen. Data for tumor model Reticulum Cell Sarcoma (Kelley Mouse) (intraperitoneal) in CD2F1 (CDF1) mice. The note with it: endpoint: median survival time, higher = longer survival. The method, then:
The antitumor activity of compounds was measured in mice bearing transplantable tumors. Survival or tumor size were measured and the results are expressed as the measurement made in the treated group (T) divided by the measurement made in the vehicle treated control group (C). The tumor model used in this assay is Reticulum Cell Sarcoma (Kelley Mouse) (intraperitoneal) in CD2F1 (CDF1) mice

Setting [1] is: dose: 3.13 mg/kg/injection, schedule: Q01DX010 (ip), vehicle: saline.
[2] abbreviates: dose: 6.25 mg/kg/injection, schedule: Q01DX010 (ip), vehicle: saline.
The mark [3] stands for this setting: dose: 12.5 mg/kg/injection, schedule: Q01DX010 (ip), vehicle: saline.
Setting [4] is: dose: 25.0 mg/kg/injection, schedule: Q01DX010 (ip), vehicle: saline.
Setting [5] is: dose: 125.0 mg/kg/injection, schedule: Q01DX010 (ip), vehicle: saline.
Setting [6] is: dose: 250.0 mg/kg/injection, schedule: Q01DX010 (ip), vehicle: saline.
The mark [7] stands for this setting: dose: 500.0 mg/kg/injection, schedule: Q01DX010 (ip), vehicle: saline.
[8] abbreviates: dose: 7.8 mg/kg/injection, schedule: Q01DX010 (ip), vehicle: saline.
Setting [9] is: dose: 15.6 mg/kg/injection, schedule: Q01DX010 (ip), vehicle: saline.
[10] abbreviates: dose: 62.5 mg/kg/injection, schedule: Q01DX010 (ip), vehicle: saline.
The mark [11] stands for this setting: dose: 5.0 mg/kg/injection, schedule: Q01DX010 (ip), vehicle: saline.
The mark [12] stands for this setting: dose: 20.0 mg/kg/injection, schedule: Q01DX010 (ip), vehicle: saline.
[13] abbreviates: dose: 40.0 mg/kg/injection, schedule: Q01DX010 (ip), vehicle: saline.
The mark [14] stands for this setting: dose: 50.0 mg/kg/injection, schedule: Q01DX010 (ip), vehicle: saline.
Setting [15] is: dose: 100.0 mg/kg/injection, schedule: Q01DX010 (ip), vehicle: saline.
[16] abbreviates: dose: 200.0 mg/kg/injection, schedule: Q01DX010 (ip), vehicle: saline.
Where [17] appears, read: dose: 1.25 mg/kg/injection, schedule: Q01DX010 (ip), vehicle: saline.
Setting [18] is: dose: 10.0 mg/kg/injection, schedule: Q01DX010 (ip), vehicle: saline.
The mark [19] stands for this setting: dose: 80.0 mg/kg/injection, schedule: Q01DX010 (ip), vehicle: saline.
[20] abbreviates: dose: 31.3 mg/kg/injection, schedule: Q01DX010 (ip), vehicle: saline.
The mark [21] stands for this setting: dose: 7.5 mg/kg/injection, schedule: Q01DX010 (ip), vehicle: saline.
Where [22] appears, read: dose: 15.0 mg/kg/injection, schedule: Q01DX010 (ip), vehicle: saline.
Where [23] appears, read: dose: 30.0 mg/kg/injection, schedule: Q01DX010 (ip), vehicle: saline.

Values joined by “and” are separate entries in the source; they are usually repeats but may differ in a detail not shown here. Equal entries are not always repeated. Inconclusive results and toxic doses are left out.

As to `C[C@H]1C(=O)O[C@@H]2CCN3CC=C(COC(=O)[C@](C)(O)[C@@]1(C)O)[C@H]23`, the T/C is 103 % of control under setting [1], 100 % of control under setting [2], 103 % of control under setting [3] and 121 % of control under setting [4].
As to `CCOC(N)=O`, the T/C was 102 % of control under setting [5]; 97 % of control and 102 % of control under setting [6]; 100 % of control and 102 % of control under setting [7]; 88 % of control and 100 % of control (dose: 1000.0 mg/kg/injection, schedule: Q01DX010 (ip), vehicle: saline).
Take `CCN(CCNc1ccc(C)c2sc3cc(Cl)ccc3c(=O)c12)CC(C)O` (stereo not drawn): the T/C under setting [8] is 94 % of control; the T/C under setting [9] is 94 % of control; the T/C under setting [10] was 94 % of control; the T/C under setting [5] is 88 % of control; the T/C under setting [6] was 88 % of control.
Regarding `O=c1[nH]c(=O)n(C2CC(O)C(CO)O2)cc1F` (stereo not drawn), the T/C is, setting by setting: under setting [11], 156 % of control; under setting [12], 171 % of control; under setting [13], 187 % of control.
Consider `CSc1ncnc2nc[nH]c12`, for which the T/C was 100 % of control under setting [4], 100 % of control under setting [14], 93 % of control under setting [15] and 100 % of control under setting [16].
For `Nc1nc(=S)c2ncn(C3OC(CO)C(O)C3O)c2[nH]1` (stereo not drawn), the T/C is 178 % of control (dose: 1.0 mg/kg/injection, schedule: Q01DX010 (ip), vehicle: saline); 182 % of control (dose: 2.0 mg/kg/injection, schedule: Q01DX010 (ip), vehicle: saline); 103 % of control (dose: 4.0 mg/kg/injection, schedule: Q01DX010 (ip), vehicle: saline).
On to `Nc1ncnc2[nH]ncc12`, for which the T/C runs as follows: (dose: 1.5 mg/kg/injection, schedule: Q01DX010 (ip), vehicle: saline) 100 % of control and 107 % of control; (dose: 3.0 mg/kg/injection, schedule: Q01DX010 (ip), vehicle: saline) 100 % of control and 110 % of control; (dose: 6.0 mg/kg/injection, schedule: Q01DX010 (ip), vehicle: saline) 105 % of control and 110 % of control; (dose: 12.0 mg/kg/injection, schedule: Q01DX010 (ip), vehicle: saline) 97 % of control and 100 % of control.
With `CS(=O)(=O)OCCCCOS(C)(=O)=O`, the T/C is 94 % of control and 105 % of control under setting [2]; 97 % of control and 108 % of control under setting [3]; 100 % of control and 102 % of control under setting [4]; 100 % of control and 105 % of control under setting [14].
Turning to `N#[N+]c1cnc([O-])[nH]c1=O`, the T/C is, setting by setting: under setting [17], 100 % of control; (dose: 2.5 mg/kg/injection, schedule: Q01DX010 (ip), vehicle: saline) 100 % of control and 112 % of control; under setting [11], 112 % of control and 118 % of control; under setting [18], 106 % of control.
For `CN(C)c1ccc(Nc2c3ccccc3nc3ccccc23)cc1`, the T/C is 159 % of control and 183 % of control (dose: 54.0 mg/kg/injection, schedule: Q01DX010 (ip), vehicle: saline); 183 % of control and 187 % of control under setting [19]; 86 % of control (dose: 120.0 mg/kg/injection, schedule: Q01DX010 (ip), vehicle: saline).
With `CS(=O)(=O)OCCCl`, the T/C is 103 % of control (dose: 18.8 mg/kg/injection, schedule: Q01DX010 (ip), vehicle: saline); 106 % of control and 115 % of control (dose: 37.5 mg/kg/injection, schedule: Q01DX010 (ip), vehicle: saline); 100 % of control (dose: 75.0 mg/kg/injection, schedule: Q01DX010 (ip), vehicle: saline).
As to `CCCNc1ncnc2[nH]ncc12`, the T/C is 97 % of control and 100 % of control under setting [1]; 97 % of control and 100 % of control under setting [2]; 97 % of control and 105 % of control under setting [3]; 100 % of control and 102 % of control under setting [4].
As to `COc1ccc2c(c1OC)C(=O)O[C@@H]2[C@H]1c2c(cc3c(c2OC)OCO3)CCN1C`, the T/C under setting [8] is 100 % of control; the T/C under setting [9] was 100 % of control; the T/C under setting [20] was 97 % of control and 102 % of control; the T/C under setting [10] is 91 % of control and 97 % of control; the T/C under setting [5] is 91 % of control; the T/C under setting [6] was 91 % of control.
For `CC/C(=C(/CC)c1ccc(O)cc1)c1ccc(O)cc1`, the T/C reads like this: (dose: 12.5 mg/kg/injection, schedule: Q01DX010 (sc), vehicle: steriod suspending solution) 105 % of control and 110 % of control; (dose: 25.0 mg/kg/injection, schedule: Q01DX010 (sc), vehicle: steriod suspending solution) 105 % of control; (dose: 50.0 mg/kg/injection, schedule: Q01DX010 (sc), vehicle: steriod suspending solution) 100 % of control and 110 % of control; (dose: 100.0 mg/kg/injection, schedule: Q01DX010 (sc), vehicle: steriod suspending solution) 105 % of control and 115 % of control.
Turning to `NC(CCSCc1ccc(N(CCCl)CCCl)cc1)C(=O)O` (stereo not drawn), the T/C is 100 % of control (dose: 4.5 mg/kg/injection, schedule: Q01DX010 (ip), vehicle: saline); 106 % of control and 117 % of control (dose: 9.0 mg/kg/injection, schedule: Q01DX010 (ip), vehicle: saline); 106 % of control and 117 % of control (dose: 18.0 mg/kg/injection, schedule: Q01DX010 (ip), vehicle: saline); 110 % of control and 111 % of control (dose: 36.0 mg/kg/injection, schedule: Q01DX010 (ip), vehicle: saline).
Take `CN(C)c1ccc(/C=C/c2ccnc3ccccc23)cc1`: the T/C reads like this: under setting [11], 100 % of control; under setting [18], 100 % of control and 112 % of control; under setting [12], 96 % of control and 100 % of control; under setting [13], 96 % of control and 103 % of control.
On to `CC(=O)N(C)C`, for which the T/C is, setting by setting: under setting [10], 100 % of control and 107 % of control; under setting [5], 95 % of control and 102 % of control; under setting [6], 97 % of control and 105 % of control; under setting [7], 90 % of control and 100 % of control.
Regarding `Clc1ncnc2nc[nH]c12`, the T/C is, setting by setting: under setting [21], 94 % of control and 111 % of control; under setting [22], 94 % of control and 100 % of control; under setting [23], 97 % of control and 102 % of control; (dose: 60.0 mg/kg/injection, schedule: Q01DX010 (ip), vehicle: saline) 100 % of control and 105 % of control.
Regarding `O=C(O)CCCc1ccc(N(CCCl)CCCl)cc1`, the T/C runs as follows: under setting [2], 103 % of control; under setting [3], 106 % of control.
In the case of `OCC1OC(n2cnc3c(Cl)ncnc32)C(O)C1O` (stereo not drawn), the T/C under setting [10] was 97 % of control and 100 % of control; the T/C under setting [5] is 92 % of control and 100 % of control; the T/C under setting [6] was 95 % of control and 102 % of control; the T/C under setting [7] was 91 % of control and 92 % of control.
For the molecule `Nc1nc(=S)c2[nH]cnc2[nH]1`, the T/C reads like this: under setting [17], 150 % of control and 170 % of control; under setting [11], 105 % of control and 120 % of control; under setting [18], 105 % of control and 108 % of control.
In the case of `Cc1cc(N(CCCl)CCCl)ccc1N=Nc1ccccc1C(=O)O`, the T/C was 100 % of control under setting [11]; 103 % of control under setting [18]; 113 % of control and 122 % of control under setting [12]; 106 % of control under setting [13].
`OCC1OC(n2cnc3c(=S)nc[nH]c32)C(O)C1O` (stereo not drawn): the T/C is 117 % of control under setting [12]; 170 % of control and 177 % of control under setting [19]; 180 % of control (dose: 160.0 mg/kg/injection, schedule: Q01DX010 (ip), vehicle: saline).
As for `Nc1c(Br)cc2c(c1Br)Cc1cc([N+](=O)[O-])ccc1-2`, the T/C was 100 % of control under setting [9]; 100 % of control under setting [20]; 88 % of control and 103 % of control under setting [10]; 94 % of control and 100 % of control under setting [5].
`Nc1nc(SCc2ccccc2)c2[nH]cnc2n1`: the T/C was 106 % of control (dose: 8.0 mg/kg/injection, schedule: Q01DX010 (ip), vehicle: saline); 106 % of control (dose: 16.0 mg/kg/injection, schedule: Q01DX010 (ip), vehicle: saline); 116 % of control (dose: 64.0 mg/kg/injection, schedule: Q01DX010 (ip), vehicle: saline); 112 % of control (dose: 128.0 mg/kg/injection, schedule: Q01DX010 (ip), vehicle: saline).
`O=[n+]1c2c(n([O-])c3ccccc31)-c1cccc3cccc-2c13`: the T/C was 92 % of control and 100 % of control under setting [4]; 92 % of control and 106 % of control under setting [14]; 100 % of control and 103 % of control under setting [15]; 92 % of control and 100 % of control under setting [16].
Turning to `CN(C)[C@@H]1C(=O)C(C(N)=O)=C(O)[C@@]2(O)C(=O)C3=C(O)c4c(O)cccc4C[C@H]3C[C@@H]12`, the T/C by setting is: (dose: 3.75 mg/kg/injection, schedule: Q01DX010 (ip), vehicle: saline) 100 % of control; under setting [21], 105 % of control and 107 % of control; under setting [22], 100 % of control and 102 % of control; under setting [23], 94 % of control and 100 % of control.
